Experiment: Solubility in water
Format: physicochemical

SMILES: CC1=C(/C=C/C(C)=C/C=C/C(C)=C\C(=O)O)C(C)(C)CCC1 [cis-retinoic acid]
- water solubility: extremely water insoluble

— patent US6391284B1, “Nonalcoholic pharmaceutical preparations from formulations including alcohol and process for the preparation thereof” (priority 2001, dated 2002)
